In patent US20090215752A1, “Compounds, preparation and therapeutic use thereof” (priority 2005, published 2009):

Columns and labels:
sigma 1 receptors = target: T1, sigma 1 receptors (Cavia porcellus, UniProt Q60492); experiment: Sigma 1 receptor binding ([3H](+)pentazocine); conditions: [3H](+)pentazocine 2 nM, guinea pig cerebral cortex, read-out: σ1 percentage inhibition at 10 μM
T1 construct: The sigma 1 receptors were isolated from guinea pig cerebral cortex; from tissue; host or cells: guinea pig cerebral cortex
Method: The sigma 1 receptors were isolated from guinea pig cerebral cortex according to the method described in Bowen et al., 1993.
Sigma 1 receptor binding was determined by a radioligand method using tritium-labelled (+)pentazocine (2 nM) as substrate (Bowen et al., 1993). Sigma 2 receptor binding was determined by a radioligand method using tritium-labelled DTG (+300 nM (+)pentazocine) (5 nM) as substrate (Bowen et al., 1993). Ligand radioactivity was determined by liquid scintillation counting. For sigma 1 binding evaluation, ligand incubations were carried out for one hundred fifty minutes at 22° C. For sigma 2 binding evaluation, ligand incubations were carried out for one hundred twenty minutes at 22° C. The experiments were conducted in duplicate.
The specific ligand binding to the sigma receptors was defined as the difference between the total binding and the non specific binding determined in presence of an excess of unlabelled ligand. The results obtained are presented in Table 4 hereinbelow and are expressed as percent of control specific binding and as a percent inhibition of control specific binding obtained in presence of 10 μM of substance.

PDE3 = target: T2, PDE3 (Bos taurus, UniProt A0A3Q1M1E8); experiment: Selectivity: inhibition of PDE3 (radioenzymatic assay); assay type: biochemical, bovine; conditions: Table 2; 10 μM compound; read-out: PDE3 percentage inhibition at 10 μM
T2 sequence (A0A3Q1M1E8 1-1126): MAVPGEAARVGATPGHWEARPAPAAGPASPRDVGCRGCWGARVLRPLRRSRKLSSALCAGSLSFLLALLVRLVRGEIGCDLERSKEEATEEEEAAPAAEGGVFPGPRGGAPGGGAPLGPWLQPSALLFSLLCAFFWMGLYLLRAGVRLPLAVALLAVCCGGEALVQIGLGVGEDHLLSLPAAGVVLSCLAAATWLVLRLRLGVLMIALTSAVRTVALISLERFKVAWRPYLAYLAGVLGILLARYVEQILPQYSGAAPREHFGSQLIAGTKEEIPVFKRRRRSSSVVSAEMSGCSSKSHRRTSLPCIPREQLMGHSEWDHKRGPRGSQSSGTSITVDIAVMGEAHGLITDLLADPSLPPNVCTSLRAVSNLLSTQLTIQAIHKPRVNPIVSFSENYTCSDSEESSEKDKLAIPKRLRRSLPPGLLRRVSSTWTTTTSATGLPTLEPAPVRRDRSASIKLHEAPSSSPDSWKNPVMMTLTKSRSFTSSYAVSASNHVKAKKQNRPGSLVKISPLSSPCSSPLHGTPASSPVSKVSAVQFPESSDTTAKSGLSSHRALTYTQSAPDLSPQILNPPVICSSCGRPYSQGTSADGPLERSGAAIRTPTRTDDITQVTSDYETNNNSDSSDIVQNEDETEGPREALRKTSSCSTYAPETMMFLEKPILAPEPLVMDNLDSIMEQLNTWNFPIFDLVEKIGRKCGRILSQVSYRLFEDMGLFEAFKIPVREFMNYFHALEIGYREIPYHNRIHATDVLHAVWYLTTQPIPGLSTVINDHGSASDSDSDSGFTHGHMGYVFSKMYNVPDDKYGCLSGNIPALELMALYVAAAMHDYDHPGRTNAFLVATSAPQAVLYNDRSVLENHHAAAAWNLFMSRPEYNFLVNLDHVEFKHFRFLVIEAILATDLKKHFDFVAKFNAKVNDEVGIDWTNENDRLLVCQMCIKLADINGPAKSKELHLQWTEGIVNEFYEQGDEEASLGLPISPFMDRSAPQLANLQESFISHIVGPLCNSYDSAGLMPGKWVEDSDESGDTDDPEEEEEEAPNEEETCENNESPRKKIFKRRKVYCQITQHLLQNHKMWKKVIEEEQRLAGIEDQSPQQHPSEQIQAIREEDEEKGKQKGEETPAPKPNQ
Method: 2.1.1. Isolation of Phosphodiesterases from Smooth Muscle A 3 g segment of bovine aortic media cut into pieces with scissors was homogenized with an ultra-turrax then a potter glass/glass homogenizer in 7 volumes by weight of buffer A containing a protease inhibitor cocktail (20 mM Tris-HCl, 0.25 M saccharose, 2 mM magnesium acetate, 1 mM dithiothreitol, 5 mM EGTA, 2000 U/ml aprotinin, 10 mg/l leupeptin and 10 mg/l soya trypsic inhibitor). The homogenizate was centrifuged at 105,000 g for 1 hour. The supernatant was loaded on a DEAE-Sephacel column (15×1.6 cm) pre-equilibrated with buffer B (buffer A without the saccharose, EGTA and protease inhibitors). The column was washed until there was no detectable absorption at 280 nm, then eluted with a linear gradient of NaCl (0-0.5 M) in buffer B. 3-ml fractions were collected and enzyme activity was determined under the conditions described hereinbelow to localize the different enzymes PDE1, PDE3, PDE4 and PDE5 which were aliquoted and frozen at −80° C. (Lugnier et al., Biochem. Phamacol., 1986, 35: 1746-1751). […]
Cyclic nucleotide phosphodiesterase activity was determined by a radioenzymatic method using tritium-labelled cyclic GMP or AMP (1 μM) as substrate (Lugnier et al., 1986). ^3H-labelled adenosine or guanosine monophosphate formed by hydrolysis of the radiolabelled cyclic nucleotide was then converted to ^3H-labelled adenosine or guanosine in a second reaction with one nucleotidase in excess. […] Nucleoside radioactivity was determined by liquid scintillation counting. […]
The activity of the compounds was evaluated on other phosphodiesterase isoforms, particularly basal state or calmodulin-activated PDE1 from vascular smooth muscle, PDE3, PDE4 and PDE5 from vascular smooth muscle. The results obtained are presented in Tables 1 and 2 hereinbelow and are expressed as the percentage inhibition of enzymatic activity produced by […] of the test compound.

T1 sequence (Q60492 whole entry): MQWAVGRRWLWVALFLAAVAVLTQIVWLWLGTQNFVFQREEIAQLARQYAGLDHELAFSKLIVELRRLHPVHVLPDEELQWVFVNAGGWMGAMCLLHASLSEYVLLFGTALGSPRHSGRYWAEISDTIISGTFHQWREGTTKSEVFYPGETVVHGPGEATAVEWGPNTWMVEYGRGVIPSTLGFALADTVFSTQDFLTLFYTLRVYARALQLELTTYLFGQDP

COc1cc2c(c(OC)c1-c1ccccc1)C(c1cccc(C(N)=O)c1)=NCC(=O)N2C [Compound 17, 3-(6,8-Dimethoxy-1-methyl-2-oxo-7-phenyl-2,3-dihydro-1H-benzo[e][1,4]diazepin-5-yl)-benzamide]
inhibition at 10 µM (sigma 1 receptors): 93%
inhibition at 10 µM (PDE3): 20%
